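Exposure lasted 48 hours, with cells grown in 96-well plates and compounds tested at five concentrations. GI50: concentration for 50% inhibition of growth.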 Active and inactive are the calls of the source. Rule as the data show it: active = GI50 up to about 1.1 µM and inactive = higher.
Assays:
Assay in all cases: NCI anticancer screen, dose series, 48 h
[1] = test system: BT-549
[2] = test system: NCI-H226
[3] = test system: UACC-257
[4] = test system: A498
[5] = test system: IGROV-1
[6] = test system: OVCAR-3
[7] = test system: SW-620
[8] = test system: EKVX
[9] = test system: SF-268
[10] = test system: NCI-H522
[11] = test system: Hs-578T
[12] = test system: MDA-N
[13] = test system: OVCAR-8
[14] = test system: NCI/ADR-RES
[15] = test system: SF-295
[16] = test system: A549
[17] = test system: LOX IMVI
[18] = test system: UO-31
[19] = test system: HCT-116
[20] = test system: KM12
[21] = test system: UACC-62
[22] = test system: SN12C
[23] = test system: HT-29
[24] = test system: PC-3
[25] = test system: SNB-75
[26] = test system: SR
[27] = test system: CCRF-CEM
[28] = test system: K562
[29] = test system: ACHN
[30] = test system: CAKI-1
[31] = test system: COLO 205
[32] = test system: SK-MEL-2
[33] = test system: RXF 393
[34] = test system: MOLT-4
[35] = test system: 786-0
[36] = test system: SK-OV-3
[37] = test system: HL-60
[38] = test system: MDA-MB-231
[39] = test system: HCC 2998
[40] = test system: RPMI-8226
[41] = test system: NCI-H460
[42] = test system: NCI-H23
[43] = test system: Malme-3M
[44] = test system: OVCAR-4
[45] = test system: HCT-15
[46] = test system: SNB-19
[47] = test system: SF-539
[48] = test system: OVCAR-5
[49] = test system: HOP-92
[50] = test system: MCF7
[51] = test system: HOP-62
[52] = test system: TK-10
[53] = test system: T47D
[54] = test system: SK-MEL-28
[55] = test system: U-251
[56] = test system: SK-MEL-5
[57] = test system: DU-145
[58] = test system: M14
[59] = test system: MDA-MB-435

Measured: GI50

COc1cc(Nc2nc3ccccc3nc2C(C)C)cc(OC)c1OC
inactive: [1] > 100 µM | [2] > 100 µM | [3] > 100 µM | [4] > 100 µM | [5] > 100 µM | [6] > 100 µM | [7] > 100 µM | [8] 42.7 µM | [9] > 100 µM | [10] 81.7 µM | [11] > 100 µM | [12] > 100 µM | [13] 73.3 µM | [14] 68.4 µM | [15] 82.8 µM | [16] > 100 µM | [17] > 100 µM | [18] > 100 µM | [19] > 100 µM | [20] > 100 µM | [21] > 100 µM | [22] > 100 µM | [23] 36.4 µM | [24] > 100 µM | [25] > 100 µM | [26] > 100 µM | [27] > 100 µM | [28] > 100 µM | [29] > 100 µM | [30] > 100 µM | [31] > 100 µM | [32] > 100 µM | [33] > 100 µM | [34] > 100 µM | [35] > 100 µM | [36] > 100 µM | [37] > 100 µM | [38] > 100 µM | [39] > 100 µM | [40] 83.2 µM | [41] > 100 µM | [42] > 100 µM | [43] > 100 µM | [44] > 100 µM | [46] > 100 µM | [47] > 100 µM | [48] > 100 µM | [49] 34 µM | [50] > 100 µM | [51] > 100 µM | [52] > 100 µM | [53] > 100 µM | [54] > 100 µM | [55] > 100 µM | [56] > 100 µM | [57] > 100 µM | [58] > 100 µM | [59] > 100 µM
90.4 µM: [45]

Nc1c2cc3ccc2nc2ccc(cc12)OCCOCCOCCOCCOCCOCCO3
> 10 µM: [45]
inactive: [1] > 10 µM | [2] > 10 µM | [3] > 10 µM | [4] > 10 µM | [5] > 10 µM | [6] > 10 µM | [7] > 10 µM | [8] > 10 µM | [9] > 10 µM | [10] > 10 µM | [11] > 10 µM | [12] > 10 µM | [13] > 10 µM | [14] > 10 µM | [15] > 10 µM | [16] > 10 µM | [17] > 10 µM | [19] > 10 µM | [20] > 10 µM | [21] > 10 µM | [22] > 10 µM | [23] > 10 µM | [24] > 10 µM | [25] > 10 µM | [26] > 10 µM | [27] > 10 µM | [28] > 10 µM | [29] > 10 µM | [30] > 10 µM | [31] > 10 µM | [32] > 10 µM | [33] > 10 µM | [34] > 10 µM | [35] > 10 µM | [36] > 10 µM | [37] > 10 µM | [38] > 10 µM | [39] > 10 µM | [40] > 10 µM | [41] > 10 µM | [42] > 10 µM | [43] > 10 µM | [44] > 10 µM | [46] > 10 µM | [47] > 10 µM | [48] > 10 µM | [49] > 10 µM | [50] > 10 µM | [51] > 10 µM | [52] > 10 µM | [53] > 10 µM | [54] > 10 µM | [55] > 10 µM | [56] > 10 µM | [57] > 10 µM | [58] > 10 µM | [59] > 10 µM

Source: ChEMBL document CHEMBL1201862, “PubChem BioAssay data set” (2004)
